The values below are quoted from earlier work in US20080070794A1, “Chemical sensors” (The Trustees of Princeton University, priority 2005, published 2008).

Each structure is given as a SMILES string.

The target in data set [1] is 5HT-1b (Homo sapiens, UniProt P28222). As to conditions: cited from earlier work.
For data set [2], the target named is T1, 5HT-1a (Homo sapiens, UniProt P08908).
T1 sequence (P08908 1-422): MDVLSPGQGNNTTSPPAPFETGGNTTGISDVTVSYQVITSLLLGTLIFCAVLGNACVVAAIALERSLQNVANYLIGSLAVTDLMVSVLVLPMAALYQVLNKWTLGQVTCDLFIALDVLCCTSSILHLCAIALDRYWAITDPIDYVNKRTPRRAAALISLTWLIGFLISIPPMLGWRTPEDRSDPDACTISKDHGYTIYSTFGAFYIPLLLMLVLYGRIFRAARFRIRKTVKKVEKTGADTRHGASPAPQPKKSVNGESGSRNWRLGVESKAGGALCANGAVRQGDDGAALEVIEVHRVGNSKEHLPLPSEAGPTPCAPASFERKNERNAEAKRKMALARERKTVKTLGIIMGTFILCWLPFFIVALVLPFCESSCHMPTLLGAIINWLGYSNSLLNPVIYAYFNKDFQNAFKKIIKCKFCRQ
Conditions: cited from earlier work; for Kd: read-out: Kd 5HT-1a.

Data set [3] has as its system alpha A2. As to conditions: cited from earlier work.
For data set [4], the target named is Melatonin. As to conditions: cited from earlier work.
Data set [5] deals with alpha A1. As to conditions: cited from earlier work.
Data set [6] deals with beta A2 (Homo sapiens, UniProt P07550). As to conditions: cited from earlier work.
Data set [7] has as its target D2 (Homo sapiens, UniProt P14416). As to conditions: cited from earlier work; for Kd: read-out: Kd D2.
Data set [8] concerns the target D1 (Homo sapiens, UniProt P21728). As to conditions: cited from earlier work.
The subject of data set [9] is Muscarinic. Conditions: cited from earlier work.

Sequence of 5HT-1b (P28222 whole entry, species assumed): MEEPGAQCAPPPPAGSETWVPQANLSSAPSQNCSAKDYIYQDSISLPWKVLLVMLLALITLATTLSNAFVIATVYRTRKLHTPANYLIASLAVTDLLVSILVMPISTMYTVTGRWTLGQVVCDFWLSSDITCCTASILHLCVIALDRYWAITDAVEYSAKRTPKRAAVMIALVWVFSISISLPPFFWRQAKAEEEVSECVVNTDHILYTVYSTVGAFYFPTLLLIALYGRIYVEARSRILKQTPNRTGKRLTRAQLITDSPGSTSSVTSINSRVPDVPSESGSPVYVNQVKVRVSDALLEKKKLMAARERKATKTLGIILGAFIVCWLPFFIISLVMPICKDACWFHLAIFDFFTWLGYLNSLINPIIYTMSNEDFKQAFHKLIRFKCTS
Sequence of D1 (P21728 whole entry): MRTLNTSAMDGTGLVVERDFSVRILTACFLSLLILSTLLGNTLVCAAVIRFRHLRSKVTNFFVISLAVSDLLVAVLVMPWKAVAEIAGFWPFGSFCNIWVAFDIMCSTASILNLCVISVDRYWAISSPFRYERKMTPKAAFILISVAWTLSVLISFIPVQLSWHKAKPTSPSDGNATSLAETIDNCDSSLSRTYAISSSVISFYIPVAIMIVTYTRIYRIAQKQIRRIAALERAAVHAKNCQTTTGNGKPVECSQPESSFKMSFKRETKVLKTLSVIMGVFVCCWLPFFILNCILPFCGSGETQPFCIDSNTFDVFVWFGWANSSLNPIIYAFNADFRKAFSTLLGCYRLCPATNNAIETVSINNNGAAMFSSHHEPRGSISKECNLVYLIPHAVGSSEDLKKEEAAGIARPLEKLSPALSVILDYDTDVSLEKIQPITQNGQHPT
Sequence of beta A2 (P07550 whole entry): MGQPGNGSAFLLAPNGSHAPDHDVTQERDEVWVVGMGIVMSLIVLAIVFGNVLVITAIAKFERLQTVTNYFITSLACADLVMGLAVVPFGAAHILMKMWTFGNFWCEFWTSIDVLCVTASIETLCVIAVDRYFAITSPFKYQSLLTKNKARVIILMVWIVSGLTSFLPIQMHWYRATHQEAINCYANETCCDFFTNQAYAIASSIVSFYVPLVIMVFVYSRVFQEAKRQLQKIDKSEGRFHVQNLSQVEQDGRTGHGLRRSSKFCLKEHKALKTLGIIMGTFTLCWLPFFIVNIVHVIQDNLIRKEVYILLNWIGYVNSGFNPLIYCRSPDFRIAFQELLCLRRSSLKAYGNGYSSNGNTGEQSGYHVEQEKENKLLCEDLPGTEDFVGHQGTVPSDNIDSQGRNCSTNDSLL
Sequence of D2 (P14416 whole entry): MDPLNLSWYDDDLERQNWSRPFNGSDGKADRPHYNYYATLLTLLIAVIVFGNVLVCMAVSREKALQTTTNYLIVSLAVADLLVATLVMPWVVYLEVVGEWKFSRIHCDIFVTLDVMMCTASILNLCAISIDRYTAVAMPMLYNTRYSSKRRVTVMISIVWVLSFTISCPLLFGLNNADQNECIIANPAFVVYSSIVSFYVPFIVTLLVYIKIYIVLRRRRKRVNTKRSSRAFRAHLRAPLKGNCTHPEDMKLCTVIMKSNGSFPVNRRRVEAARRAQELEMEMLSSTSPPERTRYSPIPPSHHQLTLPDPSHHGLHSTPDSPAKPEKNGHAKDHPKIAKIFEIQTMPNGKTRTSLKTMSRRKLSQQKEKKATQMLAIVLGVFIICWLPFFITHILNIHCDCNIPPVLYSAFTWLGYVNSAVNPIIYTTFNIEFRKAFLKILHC

The Kd is the free concentration of one partner at which half of the binding sites on the other are occupied at equilibrium, for simple one-to-one binding. With `O=C1CC2(CCCC2)CC(=O)N1CCCCN1CCN(c2ncccn2)CC1` [buspirone], the “x (efficacy factor) 5HT-1b” value in data set [1] is 1.0. For the same compound, the “x (efficacy factor) 5HT-1a” value in [2] is listed as 1.0. In addition, in data set [3], the “x (efficacy factor) alpha A2” value is given as 1.0. In [4], the Kd was 12 µM and the “x (efficacy factor) Melatonin” value is 1.0. For the same compound, the “x (efficacy factor) alpha A1” value in data set [5] was 1.0. The “x (efficacy factor) beta A2” value in [6] is 1.0. The “x (efficacy factor) D2” value in [7] was 0.1. Moreover, the “x (efficacy factor) D1” value in [8] was 0.1. In [9], the “x (efficacy factor) Muscarinic” value is listed as 1.0.

As for `Clc1cccc(Cl)c1N=C1NCCN1` [clonidine], in [1], the Kd was 360 µM and the “x (efficacy factor) 5HT-1b” value is listed as 1.0. In data set [2], the “x (efficacy factor) 5HT-1a” value is 1.0 and the Kd was 1.3 µM. Besides, in data set [3], the Kd was 0.005 µM and the “x (efficacy factor) alpha A2” value is 1.0. In data set [4], the “x (efficacy factor) Melatonin” value is 1.0. Moreover, in data set [5], the Kd is 0.43 µM and the “x (efficacy factor) alpha A1” value is given as 1.0. For the same compound, in data set [6], the “x (efficacy factor) beta A2” value is on record as 1.0. Besides, in [7], the “x (efficacy factor) D2” value was 1.0 and the Kd was 20 µM. The “x (efficacy factor) D1” value in [8] is 1.0. For the same compound, the “x (efficacy factor) Muscarinic” value in data set [9] is given as 1.0.

`CNC[C@H](O)c1ccc(O)c(O)c1` [epinephrine]: the “x (efficacy factor) 5HT-1b” value in [1] was 1.0. Moreover, in data set [2], the “x (efficacy factor) 5HT-1a” value is recorded as 1.0. In addition, in [3], the Kd was 0.1 µM and the “x (efficacy factor) alpha A2” value was 1.0. Besides, the “x (efficacy factor) Melatonin” value in data set [4] is on record as 1.0. Further, in data set [5], the Kd was 0.6 µM and the “x (efficacy factor) alpha A1” value is on record as 1.0. The “x (efficacy factor) beta A2” value in data set [6] was 1.0. Further, in data set [7], the “x (efficacy factor) D2” value is reported as 1.0 and the Kd was 5 µM. The “x (efficacy factor) D1” value in data set [8] was 1.0. Moreover, the “x (efficacy factor) Muscarinic” value in data set [9] was 1.0.

Take `CN1C[C@H](C(=O)N[C@]2(C)O[C@@]3(O)[C@@H]4CCCN4C(=O)[C@H](Cc4ccccc4)N3C2=O)C=C2c3cccc4[nH]cc(c34)C[C@H]21` [ergotamine]: in [1], the “x (efficacy factor) 5HT-1b” value is given as 1.0. In addition, in [2], the “x (efficacy factor) 5HT-1a” value is on record as 1.0. For the same compound, the dissociation constant (Kd) in data set [2] is 0.005 µM; in [3], 0.012 µM; in data set [5], 0.012 µM; in data set [7], 0.001 µM; in data set [8] (read-out: Kd D1) it was 0.01 µM. Besides, the “x (efficacy factor) alpha A2” value in data set [3] is 1.0. Besides, in data set [4], the “x (efficacy factor) Melatonin” value is 1.0. For the same compound, the “x (efficacy factor) alpha A1” value in data set [5] is listed as 1.0. Moreover, the “x (efficacy factor) beta A2” value in data set [6] is 1.0. Moreover, the “x (efficacy factor) D2” value in data set [7] is reported as 1.0. In [8], the “x (efficacy factor) D1” value is listed as 1.0. Further, the “x (efficacy factor) Muscarinic” value in data set [9] is recorded as 1.0.

In the case of `Cc1ccc(N(CC2=NCCN2)c2cccc(O)c2)cc1` [phentolamine], in [1], the Kd is 4 µM and the “x (efficacy factor) 5HT-1b” value is on record as 1.0. In data set [3], the Kd is 0.01 µM and the “x (efficacy factor) alpha A2” value was 1.0. Moreover, in data set [4], the Kd is 100 µM and the “x (efficacy factor) Melatonin” value is recorded as 1.0. Besides, in data set [5], the Kd is 0.01 µM and the “x (efficacy factor) alpha A1” value was 1.0. Besides, the “x (efficacy factor) D2” value in [7] is listed as 1.0. Further, in data set [8], the “x (efficacy factor) D1” value is recorded as 1.0. In addition, in [9], the Kd is 10 µM and the “x (efficacy factor) Muscarinic” value was 1.0.
